Reference: US11865126B2, “Method for treating anxiety disorders, headache disorders, and eating disorders with psilocybin” (priority 2019, dated 2024)

System: healthy subjects
Experiment: Phase 1 healthy volunteer study, single oral dose: treatment-emergent adverse events
Format: in vivo, human
Procedure: A Phase 1 randomized, double-blind, placebo-controlled study to evaluate the effect of psilocybin on cognitive and emotional processing as compared to placebo in healthy volunteers was conducted. The study investigated the short-term (Day 7) and long-term (Day 28) effects of moderate (10 mg) and high doses (25 mg) of psilocybin on key domains of cognition, such as episodic memory, attention, working and spatial memory, social cognition and elements of executive function, including cognitive flexibility.
90 healthy subjects were studied. Approximately 50% of the subjects were psilocybin-naïve. For subjects with prior psilocybin experience, the last exposure was at least 1 year prior to the signing of the Informed Consent Form (ICF). Approximately 50% of the subjects were female. Subjects were stratified by sex and age (18-35 years old; >35 years old).
Each subject was assigned 1 treatment bottle containing 5 capsules packaged in a double-blind fashion, depending on the randomized treatment arm, the bottle contained one of the following: • a. Psilocybin 10 mg: 2×5-mg oral psilocybin capsules plus 3× placebo capsules • b. Psilocybin 25 mg: 5×5-mg oral psilocybin capsules • c. Placebo: 5× placebo capsules
Each 5-mg oral psilocybin capsule comprised 5 mg crystalline psilocybin in the form of Polymorph A, 12.5 mg of SMCC 50, 79.5 mg of SMCC 90, 1 mg sodium starch glycolate, 1 mg colloidal silicon dioxide, and 1 mg sodium stearyl fumarate
Adverse events: Throughout the course of the study, all AEs were monitored and recorded. Each AE was classified according to the following criteria: • i. […] Moderate: The AE produces some impairment of functioning, but is not hazardous to the subject's health. • iii. Severe: The AE produces significant impairment of functioning or incapacitation and is a definite hazard to the subject's health.
Selected Adverse Events of included: • (a) Euphoric mood • (b) Dissociative disorder • (c) Hallucination • (d) Psychotic disorder • (e) Cognitive disorder • (f) Disturbance in attention • (g) Altered mood • (h) Impairment of psychomotor skills • (i) Inappropriate affect • (j) Overdose • (k) Intentional product misuse • (l) Illusion
For example, drug-induced hepatitis that resolved without evidence of hepatic failure would not be considered life threatening even though drug-induced hepatitis can be fatal. • (c) Inpatient hospitalization or prolongation of existing hospitalization. • (d) Persistent or significant disability/incapacity. • (e) Congenital anomaly/birth defect in the offspring of a subject who received psilocybin. • (f) Other: Important medical events that may not result in death, be life-threatening, or require hospitalization, may be considered an SAE when, based upon appropriate medical judgment, they may jeopardize the subject and may require medical or surgical intervention to prevent one of the outcomes listed in this definition. […] Visits:
Visit 3 (V3): Drug Administration (Day 0): The subject was asked to eat a light breakfast at least two hours prior to coming to the clinic for study drug administration. On Day 0 (V3), the subject underwent the SSTS, had vital signs obtained, medications reviewed, AEs recorded and eligibility reviewed prior to being randomized to study drug. The study drug was administered to up to six subjects simultaneously in individual beds separated by a curtain. The subject was invited to put on eyeshades and headphones, lie down and listen to calming music for the rest of the session (six hours). The subject was supported 1:1 with a chaperone and supervised by the study psychiatrist and lead therapist.
Recording of adverse events and prior/concomitant medication was performed at each visit.
During administration of psilocybin, each subject received one on one support from a trained assisting therapist and each dosing session was supervised by a study psychiatrist and a lead therapist. […]

For `CN(C)CCc1c[nH]c2cccc(OP(=O)(O)O)c12` [psilocybin], the “Nervous system disorders, worst severity Moderate: Events” value (25 mg) was 10, the “Nervous system disorders, worst severity Severe: Events” value (25 mg) was 1 and the “Nervous system disorders: Events” value (25 mg) was 43. For the same compound, the “Paraesthesia, worst severity Mild: Events” value (25 mg) was 3, the “Paraesthesia, worst severity Mild: N (%)” value (25 mg) was 3 (10.0) and the “Paraesthesia, worst severity Moderate: Events” value (25 mg) was 1. The “Paraesthesia, worst severity Severe: Events” value (25 mg) was 0, the “Paraesthesia, worst severity Severe: N (%)” value (25 mg) was 0 and the “Paraesthesia: Events” value (25 mg) was 4. The “Psychiatric disorders, worst severity Mild: Events” value (25 mg) was 5, the “Psychiatric disorders, worst severity Moderate: Events” value (25 mg) was 45 and the “Psychiatric disorders, worst severity Severe: Events” value (25 mg) was 27. For the same compound, the “Psychiatric disorders, worst severity Severe: N (%)” value (25 mg) was 9 (30.0), the “Respiratory, thoracic and mediastinal disorders: Events” value (25 mg) was 3 and the “Respiratory, thoracic and mediastinal disorders: N (%)” value (25 mg) was 3 (10.0). The “Somatic hallucination, worst severity Mild: Events” value (25 mg) was 2, the “Somatic hallucination, worst severity Moderate: Events” value (25 mg) was 2 and the “Somatic hallucination, worst severity Severe: Events” value (25 mg) was 2. For the same compound, the “Somatic hallucination: Events” value (25 mg) was 6, the “Tension headache, worst severity Mild: Events” value (25 mg) was 4 and the “Tension headache, worst severity Moderate: Events” value (25 mg) was 2. The “Tension headache, worst severity Severe: Events” value (25 mg) was 0, the “Tension headache, worst severity Severe: N (%)” value (25 mg) was 0 and the “Tension headache: Events” value (25 mg) was 6. For the same compound, the “Tension headache: N (%)” value (25 mg) was 6 (20.0), the “Time perception altered, worst severity Mild: Events” value (25 mg) was 2 and the “Time perception altered, worst severity Moderate: Events” value (25 mg) was 4. The “Time perception altered, worst severity Severe: Events” value (25 mg) was 0, the “Time perception altered, worst severity Severe: N (%)” value (25 mg) was 0 and the “Time perception altered: Events” value (25 mg) was 6. For the same compound, the “Time perception altered: N (%)” value (25 mg) was 6 (20.0), the “Reported 'Mood altered' events: Being less judgmental” value (25 mg psilocybin (n = 30)) was 0 and the “Reported 'Mood altered' events: Calm” value (25 mg psilocybin (n = 30)) was 0. The “Reported 'Mood altered' events: Clarity of thought” value (25 mg psilocybin (n = 30)) was 1, the “Reported 'Mood altered' events: Contemplative state” value (25 mg psilocybin (n = 30)) was 1 and the “Reported 'Mood altered' events: Feeling more moody/sensitive” value (25 mg psilocybin (n = 30)) was 0. The “Reported 'Mood altered' events: Feeling of adrenaline release” value (25 mg psilocybin (n = 30)) was 0, the “Reported 'Mood altered' events: Feeling rested” value (25 mg psilocybin (n = 30)) was 0 and the “Reported 'Mood altered' events: Increased compassion” value (25 mg psilocybin (n = 30)) was 1. For the same compound, the “Reported 'Mood altered' events: Increased creativity” value (25 mg psilocybin (n = 30)) was 1, the “Reported 'Mood altered' events: Increased empathy” value (25 mg psilocybin (n = 30)) was 2 and the “Reported 'Mood altered' events: Increased sense of connectedness” value (25 mg psilocybin (n = 30)) was 1. For the same compound, the “Reported 'Mood altered' events: Increased wit” value (25 mg psilocybin (n = 30)) was 0, the “Reported 'Mood altered' events: Introspection” value (25 mg psilocybin (n = 30)) was 8 and the “Reported 'Mood altered' events: Laughter” value (25 mg psilocybin (n = 30)) was 1. The “Reported 'Mood altered' events: More socially upbeat” value (25 mg psilocybin (n = 30)) was 1, the “Reported 'Mood altered' events: Negative mood” value (25 mg psilocybin (n = 30)) was 0 and the “Reported 'Mood altered' events: Reflections” value (25 mg psilocybin (n = 30)) was 4. For the same compound, the “Reported 'Mood altered' events: Saw themselves from a new perspective” value (25 mg psilocybin (n = 30)) was 1, the “Reported 'Mood altered' events: Sense of oneness” value (25 mg psilocybin (n = 30)) was 2 and the “Reported 'Mood altered' events: Sense of openness” value (25 mg psilocybin (n = 30)) was 0. The “Reported 'Mood altered' events: Unusual appreciation of music” value (25 mg psilocybin (n = 30)) was 0, the “Any TEAE: % of subjects” value (25 mg, listed as Psilocybin) was “(96.7) %” and the “Affect lability, Events” value (Psilocybin 10 mg (N = 30)) was 5. The “Change in sustained attention, Events” value (Psilocybin 10 mg (N = 30)) was 2, the “Depressed mood, Events” value (Psilocybin 10 mg (N = 30)) was 1 and the “Dissociative identity disorder, Events” value (Psilocybin 10 mg (N = 30)) was 2. The “Euphoric mood, Events” value (Psilocybin 10 mg (N = 30)) was 7, the “Hallucination, Events” value (Psilocybin 10 mg (N = 30)) was 3 and the “Hallucination, N (%)” value (Psilocybin 10 mg (N = 30)) was 3 (10.0). For the same compound, the “Hallucination, auditory, Events” value (Psilocybin 10 mg (N = 30)) was 4, the “Hallucination, gustatory, Events” value (Psilocybin 10 mg (N = 30)) was 1 and the “Hallucination, olfactory, Events” value (Psilocybin 10 mg (N = 30)) was 1. The “Hallucination, tactile, Events” value (Psilocybin 10 mg (N = 30)) was 2, the “Hallucination, visual, Events” value (Psilocybin 10 mg (N = 30)) was 20 and the “Illusion, Events” value (Psilocybin 10 mg (N = 30)) was 25. For the same compound, the “Memory impairment, Events” value (Psilocybin 10 mg (N = 30)) was 1, the “Mood altered, Events” value (Psilocybin 10 mg (N = 30)) was 23 and the “Nervous system disorders, Events” value (Psilocybin 10 mg (N = 30)) was 2. For the same compound, the “Nervous system disorders, N (%)” value (Psilocybin 10 mg (N = 30)) was 2 (6.7), the “Psychiatric disorders, Events” value (Psilocybin 10 mg (N = 30)) was 104 and the “Psychomotor skills impaired, Events” value (Psilocybin 10 mg (N = 30)) was 1. For the same compound, the “Selected TEAE (any), Events” value (Psilocybin 10 mg (N = 30)) was 106, the “Selected TEAE (any), N (%)” value (Psilocybin 10 mg (N = 30)) was 27 (90.0) and the “Somatic hallucination, Events” value (Psilocybin 10 mg (N = 30)) was 8. The “Substance-induced psychotic disorder, Events” value (Psilocybin 10 mg (N = 30)) was 0, the “Substance-induced psychotic disorder, N (%)” value (Psilocybin 10 mg (N = 30)) was 0 and the “Affect lability, Events” value (Psilocybin 25 mg (N = 30)) was 3. The “Affect lability, N (%)” value (Psilocybin 25 mg (N = 30)) was 3 (10.0), the “Change in sustained attention, Events” value (Psilocybin 25 mg (N = 30)) was 0 and the “Change in sustained attention, N (%)” value (Psilocybin 25 mg (N = 30)) was 0. The “Depressed mood, Events” value (Psilocybin 25 mg (N = 30)) was 2, the “Dissociative identity disorder, Events” value (Psilocybin 25 mg (N = 30)) was 2 and the “Euphoric mood, Events” value (Psilocybin 25 mg (N = 30)) was 8. For the same compound, the “Hallucination, Events” value (Psilocybin 25 mg (N = 30)) was 2, the “Hallucination, auditory, Events” value (Psilocybin 25 mg (N = 30)) was 4 and the “Hallucination, gustatory, Events” value (Psilocybin 25 mg (N = 30)) was 0. The “Hallucination, gustatory, N (%)” value (Psilocybin 25 mg (N = 30)) was 0, the “Hallucination, olfactory, Events” value (Psilocybin 25 mg (N = 30)) was 1 and the “Hallucination, tactile, Events” value (Psilocybin 25 mg (N = 30)) was 4. The “Hallucination, visual, Events” value (Psilocybin 25 mg (N = 30)) was 22, the “Illusion, Events” value (Psilocybin 25 mg (N = 30)) was 26 and the “Memory impairment, Events” value (Psilocybin 25 mg (N = 30)) was 0. The “Memory impairment, N (%)” value (Psilocybin 25 mg (N = 30)) was 0, the “Mood altered, Events” value (Psilocybin 25 mg (N = 30)) was 25 and the “Nervous system disorders, Events” value (Psilocybin 25 mg (N = 30)) was 0. For the same compound, the “Nervous system disorders, N (%)” value (Psilocybin 25 mg (N = 30)) was 0, the “Psychiatric disorders, Events” value (Psilocybin 25 mg (N = 30)) was 106 and the “Psychomotor skills impaired, Events” value (Psilocybin 25 mg (N = 30)) was 0. The “Psychomotor skills impaired, N (%)” value (Psilocybin 25 mg (N = 30)) was 0, the “Selected TEAE (any), Events” value (Psilocybin 25 mg (N = 30)) was 106 and the “Selected TEAE (any), N (%)” value (Psilocybin 25 mg (N = 30)) was 27 (90.0). For the same compound, the “Somatic hallucination, Events” value (Psilocybin 25 mg (N = 30)) was 6 and the “Substance-induced psychotic disorder, Events” value (Psilocybin 25 mg (N = 30)) was 1.
